{"source": "the NIST ThermoML archive (doi:10.1021/acs.jced.8b01099)", "key": {"[1]": {"test": "Molar enthalpy of transition or fusion", "details": "Crystal; DSC"}, "[2]": {"details": "Crystal; DSC"}}, "note": "Numbers after ± are expanded uncertainties.", "data": [{"smiles": "CC(C)N1C(=O)N(c2ccccc2)CSC1=NC(C)(C)C", "note": "[buprofezin]", "values": [{"measurement": "Molar enthalpy of transition or fusion", "setting": "[1]", "result": "7.18 ± 0.239", "unit": "kcal/mol"}, {"measurement": "Triple point temperature", "setting": "[2]", "result": "377.95 ± 1.2", "unit": "K"}]}]}
